Data on one molecule can be found in article PMC5382172 (Frontiers in Molecular Neuroscience, 2017).

Several values for one entry are separate records, joined by “and”; a condition that tells them apart may be missing. Equal values may be shown once.

For orientation: EC50 means the concentration needed to bring the measured effect to its halfway point. Low readings indicate an effect from little substance, high ones a need for much substance.

One assay has as its target T1, GluClαE273R/βWT receptor (Caenorhabditis elegans, UniProt G5EBR3+Q17328, E273R).
T1 construct: entry codes of the full-length subunits used in this study; expressed in transfected cells; host or cells: CHO cells, transient co-transfection 1:1, pcDNA3.1
Description: Whole-cell patch clamp in CHO cells, GluClαE273R/βWT receptor. To be noted: 500 nM IVM, -60 mV. The class given is cell-based. How it is done: (§1) Chinese hamster ovary (CHO) cells were cultured as previously (Bar-Lev et al., [2011]) in Dulbecco’s Modified Eagle Medium (DMEM) containing 10% fetal calf serum, 2 mM glutamax, 100 Units/ml penicillin G and 100 μg/ml streptomycin, and grown in 5% CO2 at 37°C under 90%–95% humidity. The cells were seeded on glass coverslips (13-mm diameter) placed in a 24-multiwell plate. […] For the expression of GluCl receptors, cells were transiently co-transfected with pcDNA3.1 plasmids containing the ORFs of interest using transit-LT1 transfection reagent (Mirus, Madison, WI, USA), according to the manufacturer’s protocol. The cDNAs encoding the C. elegans GluClα (GLC-1) or its mutated versions and the GluClβ (GLC-2) subunits (200–600 ng per well) were used at 1:1 ratio. The pIRES-CD8 plasmid (200 ng per well) was added to enable the visualization of the expressing cells by beads coated with anti-CD8 antibodies (Invitrogen). […]
(§2) Whole-cell patch clamp recordings were performed as described previously (Bar-Lev et al., [2011]) in CHO cells that were prepared as detailed above. […] The currents were measured with an Axopatch 200B patch-clamp amplifier (Molecular Devices, Sunnyvale, CA, USA) and a Digidata 1440A interface (Molecular Devices). […]

A further assay has as its target T2, GluClαF276W/βWT receptor (Caenorhabditis elegans, UniProt G5EBR3+Q17328, F276W).
T2 construct: entry codes of the full-length subunits used in this study; expressed in transfected cells; host or cells: CHO cells, transient co-transfection 1:1, pcDNA3.1
The assay is described as follows: Whole-cell patch clamp in CHO cells, GluClαF276W/βWT receptor. Particulars: 500 nM IVM, -60 mV. The format is cell-based. How it is done:
as §1, §2
For orientation: The patch-clamp technique gives a direct electrical read-out from membranes.

The target in the next assay is T3, GluClαP192M/βWT receptor (Caenorhabditis elegans, UniProt G5EBR3+Q17328, P192M).
T3 construct: entry codes of the full-length subunits used in this study; expressed in transfected cells; host or cells: CHO cells, transient co-transfection 1:1, pcDNA3.1
T3 sequence (G5EBR3 21-461 P192M, one chain of several): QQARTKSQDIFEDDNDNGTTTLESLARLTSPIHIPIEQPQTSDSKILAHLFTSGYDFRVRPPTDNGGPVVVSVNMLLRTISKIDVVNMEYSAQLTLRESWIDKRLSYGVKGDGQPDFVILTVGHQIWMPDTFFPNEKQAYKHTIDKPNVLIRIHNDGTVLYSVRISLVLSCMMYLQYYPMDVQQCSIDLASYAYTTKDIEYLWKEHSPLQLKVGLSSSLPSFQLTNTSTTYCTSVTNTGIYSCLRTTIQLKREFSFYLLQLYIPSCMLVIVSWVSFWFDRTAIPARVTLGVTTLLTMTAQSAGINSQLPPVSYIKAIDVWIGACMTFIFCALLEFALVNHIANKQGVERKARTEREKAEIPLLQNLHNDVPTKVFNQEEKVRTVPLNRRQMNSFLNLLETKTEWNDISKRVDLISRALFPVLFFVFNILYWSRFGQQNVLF
The assay is described as follows: Whole-cell patch clamp in CHO cells, GluClαP192M/βWT receptor. The class given is cell-based. Particulars: 500 nM IVM, -60 mV. How it is done: as §1, §2

The target of assay [1] is T4, GluClαWT (GLC-1) homomeric receptor (Caenorhabditis elegans, UniProt G5EBR3).
T4 construct: entry codes of the full-length subunits used in this study; expressed in transfected cells; host or cells: CHO cells, transient transfection, pcDNA3.1
T4 sequence (G5EBR3 21-461): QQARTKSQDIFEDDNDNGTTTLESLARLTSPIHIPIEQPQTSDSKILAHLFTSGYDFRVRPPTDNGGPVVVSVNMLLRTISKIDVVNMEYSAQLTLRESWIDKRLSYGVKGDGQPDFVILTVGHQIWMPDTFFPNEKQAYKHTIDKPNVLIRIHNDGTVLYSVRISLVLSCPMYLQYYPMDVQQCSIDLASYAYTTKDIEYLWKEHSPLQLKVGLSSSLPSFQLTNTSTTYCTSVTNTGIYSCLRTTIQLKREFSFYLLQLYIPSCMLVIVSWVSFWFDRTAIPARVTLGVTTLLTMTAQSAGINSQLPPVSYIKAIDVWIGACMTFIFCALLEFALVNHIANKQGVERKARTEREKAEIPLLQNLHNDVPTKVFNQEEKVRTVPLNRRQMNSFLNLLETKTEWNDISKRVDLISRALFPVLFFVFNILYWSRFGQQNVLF
Description: Whole-cell patch clamp in CHO cells transfected with GluClαWT subunit alone. The class given is cell-based. Particulars: αWT alone, 500 nM IVM, -60 mV.

The target in another assay is T5, GluClαWT/βWT receptor (Caenorhabditis elegans, UniProt G5EBR3+Q17328).
T5 construct: entry codes of the full-length subunits used in this study; expressed in transfected cells; host or cells: CHO cells, transient co-transfection 1:1, pcDNA3.1
T5 sequence (G5EBR3 21-461): T4 sequence (G5EBR3 21-461)
T5 sequence (Q17328 23-434): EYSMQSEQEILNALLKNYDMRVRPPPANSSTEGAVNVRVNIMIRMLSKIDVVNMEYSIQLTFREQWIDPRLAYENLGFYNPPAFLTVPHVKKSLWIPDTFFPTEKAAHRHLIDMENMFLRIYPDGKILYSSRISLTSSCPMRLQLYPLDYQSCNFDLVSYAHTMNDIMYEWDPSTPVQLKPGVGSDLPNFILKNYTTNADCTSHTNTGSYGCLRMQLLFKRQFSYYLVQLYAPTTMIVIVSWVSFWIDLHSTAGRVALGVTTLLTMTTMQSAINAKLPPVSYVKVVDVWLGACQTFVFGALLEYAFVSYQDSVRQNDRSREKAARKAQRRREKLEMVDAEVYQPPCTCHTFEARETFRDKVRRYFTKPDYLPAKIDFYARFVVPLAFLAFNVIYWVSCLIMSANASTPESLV
Description: Whole-cell patch clamp in CHO cells, GluClαWT/βWT receptor. The format is cell-based. As for the experimental part:
Chinese hamster ovary (CHO) cells were cultured as previously (Bar-Lev et al., [2011]) in Dulbecco’s Modified Eagle Medium (DMEM) containing 10% fetal calf serum, 2 mM glutamax, 100 Units/ml penicillin G and 100 μg/ml streptomycin, and grown in 5% CO2 at 37°C under 90%–95% humidity. The cells were seeded on glass coverslips (13-mm diameter) placed in a 24-multiwell plate. […] For the expression of GluCl receptors, cells were transiently co-transfected with pcDNA3.1 plasmids containing the ORFs of interest using transit-LT1 transfection reagent (Mirus, Madison, WI, USA), according to the manufacturer’s protocol. The cDNAs encoding the C. elegans GluClα (GLC-1) or its mutated versions and the GluClβ (GLC-2) subunits (200–600 ng per well) were used at 1:1 ratio. The pIRES-CD8 plasmid (200 ng per well) was added to enable the visualization of the expressing cells by beads coated with anti-CD8 antibodies (Invitrogen). For high-level expression of the GluClαF276A/βWT mutant receptor in experiments assigned to determine its IVM-EC50, we used the X-tremeGENE HP DNA Transfection Reagent (Roche Life Science). Recordings were performed 72–96 h following the transfection.
Whole-cell patch clamp recordings were performed as described previously (Bar-Lev et al., [2011]) in CHO cells that were prepared as detailed above. The normal external solution (NES) contained (in millimolar): 140 NaCl, 2.8 KCl, 2 CaCl2, 2 MgCl2, 10 glucose and 10 HEPES, adjusted to pH 7.35 with NaOH (310 mOsm/L). The pipette solution contained (in millimolar): 130 KCl, 4 MgCl2, 4 Na2ATP, 1 EGTA and 10 HEPES, adjusted to pH 7.35 with KOH (290 mOsm/L). The osmolarity of these solutions was maintained by adding sucrose. The electrode resistance was 6–10 MΩ when filled with the pipette solution. External solutions were applied onto the cell by using the VC-77SP fast-step system (Warner Instruments, Hamden, CT, USA) combined with N2 pressure of 3–4 psi to produce laminar flow of the external solution onto the patched cell. All measurements were performed at room temperature. The currents were measured with an Axopatch 200B patch-clamp amplifier (Molecular Devices, Sunnyvale, CA, USA) and a Digidata 1440A interface (Molecular Devices). Acquisition of recording data was performed at 2.5 kHz and recordings were low-pass filtered at 1 kHz, through a four-pole Bessel filter. The pClamp 10 software (Molecular Devices) was used for data acquisition. […] Five-hundred milliseconds after the application started (which is also after the current reached to its peak at −60 mV), the voltage was stepped from −60 mV to −80 mV for 50 ms followed by a 250-ms-long voltage ramp ranging from −80 mV to +80 mV.
Dose-response curves were fitted to the data points by a nonlinear regression using the Hill Equation 1,

For assay [2], the target named is T4, GluClαWT (GLC-1) homomeric receptor. Further details: method as in Degani-Katzav et al., [2016]. To be noted: CHO cells, αWT alone; ref Degani-Katzav et al., [2016]; cited from earlier work.
The subject of a further assay is wild type GluClα/βR. More on the design: method as in Cully et al., [1994]. To be noted: 5 nM IVM, Xenopus oocytes; ref Cully et al., [1994]; cited from earlier work.
Another assay addresses T6, GluClαY194R/βWT receptor (Caenorhabditis elegans, UniProt G5EBR3+Q17328, Y194R).
T6 construct: entry codes of the full-length subunits used in this study; expressed in transfected cells; host or cells: CHO cells, transient co-transfection 1:1, pcDNA3.1
Description: Whole-cell patch clamp in CHO cells, GluClαY194R/βWT receptor. The class given is cell-based. To be noted: 500 nM IVM, -60 mV. As for the experimental part: as §1, §2

[3] abbreviates: cumulative IVM concentrations, -60 mV.

T1 sequence (G5EBR3 21-461 E273R, one chain of several): as the sequence (G5EBR3 21-461 P192M, one chain of several) above, with M172P, E253R counted along it
T2 sequence (G5EBR3 21-461 F276W, one chain of several): as the sequence (G5EBR3 21-461 P192M, one chain of several) above, with M172P, F256W counted along it
T6 sequence (G5EBR3 21-461 Y194R, one chain of several): as the sequence (G5EBR3 21-461 P192M, one chain of several) above, with M172P, Y174R counted along it

On to `CC[C@H](C)[C@H]1O[C@]2(CC[C@@H]1C)C[C@@H]1C[C@@H](C/C=C(\C)[C@@H](O[C@H]3C[C@H](OC)[C@@H](O[C@H]4C[C@H](OC)[C@@H](O)[C@H](C)O4)[C@H](C)O3)[C@@H](C)/C=C/C=C3\CO[C@@H]4[C@H](O)C(C)=C[C@@H](C(=O)O1)[C@]34O)O2` [IVM, ivermectin], for which the “IVM (500 nM) Amplitude” value was 1.0 ± 0.2 nA at GluClαE273R/βWT receptor; 1.2 ± 0.2 nA at GluClαF276W/βWT receptor; 1.4 ± 0.2 nA at GluClαP192M/βWT receptor; 1.0 ± 0.3 (14) nA in assay [1]; 1.8 ± 0.1 nA on GluClαWT/βWT receptor (CHO cells, 500 nM IVM, -60 mV); 2.1 ± 0.5 nA on GluClαY194R/βWT receptor. Moreover, at GluClαWT/βWT receptor (7 nM IVM), the “Fold decrease in Glu-EC50 observed after pre-exposure to IVM” value is ~ 5 fold and 5 fold. Further, the “fold-potentiation of Glu-elicited response by IVM” value at GluClαWT/βWT receptor (0.3 mM Glu before and after exposure to 7 nM IVM) was ~ 6 fold and 5.9 ± 0.6 fold. It took 40 nM to reach a half-maximal effect on GluClαWT/βWT receptor (setting [3]) (EC50). Also, the “Hill coefficient of activation by IVM” value on GluClαWT/βWT receptor (setting [3]) was 1.5 and 1.5 ± 0.2. Moreover, in assay [2], the “response to 500 nM IVM” value is “robust responses”. For the same molecule, the “potentiation of Glu-sensitive currents by IVM” value in the assay on wild type GluClα/βR is on record as ~ 5 fold.
